Earlier results, collected in patent publication US8338381B2, “Composition and method for the treatment of eye disease” (ADER Enterprise, Inc., priority 2003, dated 2012).

Assays:
[1] = administered directly to the eye; Babizhayev 1996
eye cataracts = settings: administered directly to the eye; Babizhayev 1996

## NCCC(=O)N[C@@H](Cc1cnc[nH]1)C(=O)O [L-carnosine, β-alanyl-L-histidine]
[1]
  accumulation in the aqueous humor of the eye: does not lead to accumulation in the aqueous humor of the eye
Eye cataracts
  effect on eye cataracts beyond placebo control: does not lead to accumulation in the aqueous humor of the eye or have any significant effect on eye cataracts beyond that of a placebo control
